The source of these data is patent US20240293551A1, “USE OF ST-TYPE LIPID COMPOUNDS IN PREPARATION OF NUCLEIC ACID DELIVERY REAGENT AND RELATED PRODUCT” (INSTITUTE OF BASIC MEDICAL SCIENCES CHINESE ACADEMY OF …, priority 2021, published 2024).

This experiment has as its system PGY-sRNA-26. The experiment in a line: In vivo delivery study of lipid-nucleic acid mixture (oral gavage, RT-qPCR of PGY-sRNA-26 in tissues). Also on record: species or system mouse. The conditions noted are these: for delivery efficacy over each tissue and blood tested (broad-spectrum delivery): all tissues and blood tested; for oral delivery of single-stranded sRNA nucleic acids into mouse intestinal tissue: intestine. The method, boiled down: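 C57BL/6 male mice (~6 weeks, 20-24 g), fasted 12 h, were gavaged with 10 nmol 3′-methylated PGY-sRNA-26 mixed with 100 μg lipid (heated 90° C. 15 min), versus saline or free sRNA (n=4 each). After 12 h, blood and tissues were Trizol-extracted; sRNA quantified by stem-loop RT-qPCR relative to U6.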
A general note: Quantitative PCR measures a nucleic acid by following its amplification.

Where [1] appears, read: C57BL/6 mice, gavage, 100 μg lipid: 10 nmol PGY-sRNA-26, 12 hours.
Where [2] appears, read: C57BL/6 mice, gavage, 100 μg lipid: 10 nmol PGY-sRNA-26, 12 hours, brain.

Take `C[C@H](CCC(=O)NCC(=O)O)[C@H]1CC[C@H]2[C@@H]3[C@H](O)C[C@@H]4C[C@H](O)CC[C@]4(C)[C@H]3C[C@H](O)[C@]12C` [Lipid 553]: under setting [1], the “delivery efficacy over each tissue and blood tested (broad-spectrum delivery)” value is “exhibited the best delivery efficacy”; the “oral delivery of single-stranded sRNA nucleic acids into mouse blood” value is reported as “can effectively orally deliver”; the “oral delivery of single-stranded sRNA nucleic acids into mouse femur” value is reported as “can effectively orally deliver”; the “oral delivery of single-stranded sRNA nucleic acids into mouse heart tissue” value was “can effectively orally deliver”. For the same compound, under setting [1], the “oral delivery of single-stranded sRNA nucleic acids into mouse intestinal tissue” value is reported as “can effectively orally deliver”, the “oral delivery of single-stranded sRNA nucleic acids into mouse kidney tissue” value was “can effectively orally deliver”, the “oral delivery of single-stranded sRNA nucleic acids into mouse liver tissue” value is reported as “can effectively orally deliver” and the “oral delivery of single-stranded sRNA nucleic acids into mouse lung tissue” value is recorded as “can effectively orally deliver”. Further, under setting [1], the “oral delivery of single-stranded sRNA nucleic acids into mouse spleen tissue” value is listed as “can effectively orally deliver” and the “oral delivery of single-stranded sRNA nucleic acids into mouse stomach tissue” value is recorded as “can effectively orally deliver”. Further, the “oral delivery of single-stranded sRNA nucleic acids into mouse brain tissue” value under setting [2] is “can effectively orally deliver”.

As to `C=C1/C(=C\C=C2/CCC[C@]3(C)[C@@H]([C@H](C)/C=C/[C@@H](O)C4CC4)CC[C@@H]23)C[C@@H](O)C[C@@H]1O` [Lipid 554], under setting [1], the “delivery efficacy over each tissue and blood tested (broad-spectrum delivery)” value was “exhibited the best delivery efficacy”; the “oral delivery of single-stranded sRNA nucleic acids into mouse blood” value is on record as “can effectively orally deliver”; the “oral delivery of single-stranded sRNA nucleic acids into mouse femur” value is listed as “can effectively orally deliver”; the “oral delivery of single-stranded sRNA nucleic acids into mouse heart tissue” value is reported as “can effectively orally deliver”. Under setting [1], the “oral delivery of single-stranded sRNA nucleic acids into mouse intestinal tissue” value is “can effectively orally deliver”, the “oral delivery of single-stranded sRNA nucleic acids into mouse kidney tissue” value was “can effectively orally deliver”, the “oral delivery of single-stranded sRNA nucleic acids into mouse liver tissue” value is recorded as “can effectively orally deliver” and the “oral delivery of single-stranded sRNA nucleic acids into mouse lung tissue” value was “can effectively orally deliver”. Moreover, under setting [1], the “oral delivery of single-stranded sRNA nucleic acids into mouse spleen tissue” value was “can effectively orally deliver” and the “oral delivery of single-stranded sRNA nucleic acids into mouse stomach tissue” value is recorded as “can effectively orally deliver”. For the same compound, the “oral delivery of single-stranded sRNA nucleic acids into mouse brain tissue” value under setting [2] is recorded as “can effectively orally deliver”.

As for `C[C@]12CCC(=O)C=C1CC[C@@H]1[C@@H]2[C@@H](O)C[C@]2(C)C(=O)CC[C@@H]12` [Lipid 555], under setting [1], the “delivery efficacy over each tissue and blood tested (broad-spectrum delivery)” value was “exhibited the best delivery efficacy”; the “oral delivery of single-stranded sRNA nucleic acids into mouse blood” value is “can effectively orally deliver”; the “oral delivery of single-stranded sRNA nucleic acids into mouse femur” value is given as “can effectively orally deliver”; the “oral delivery of single-stranded sRNA nucleic acids into mouse heart tissue” value is listed as “can effectively orally deliver”. Also, under setting [1], the “oral delivery of single-stranded sRNA nucleic acids into mouse intestinal tissue” value is on record as “can effectively orally deliver”, the “oral delivery of single-stranded sRNA nucleic acids into mouse kidney tissue” value is on record as “can effectively orally deliver”, the “oral delivery of single-stranded sRNA nucleic acids into mouse liver tissue” value is listed as “can effectively orally deliver” and the “oral delivery of single-stranded sRNA nucleic acids into mouse lung tissue” value is listed as “can effectively orally deliver”. Besides, under setting [1], the “oral delivery of single-stranded sRNA nucleic acids into mouse spleen tissue” value was “can effectively orally deliver” and the “oral delivery of single-stranded sRNA nucleic acids into mouse stomach tissue” value was “can effectively orally deliver”. Moreover, the “oral delivery of single-stranded sRNA nucleic acids into mouse brain tissue” value under setting [2] is on record as “can effectively orally deliver”.

In the case of `CCCCC(=O)O[C@H]1CC[C@H]2[C@@H]3CCc4cc(O)ccc4[C@H]3CC[C@]12C` [Lipid 556], under setting [1], the “delivery efficacy over each tissue and blood tested (broad-spectrum delivery)” value was “exhibited the best delivery efficacy”; the “oral delivery of single-stranded sRNA nucleic acids into mouse blood” value was “can effectively orally deliver”; the “oral delivery of single-stranded sRNA nucleic acids into mouse femur” value is given as “can effectively orally deliver”; the “oral delivery of single-stranded sRNA nucleic acids into mouse heart tissue” value is “can effectively orally deliver”. For the same compound, under setting [1], the “oral delivery of single-stranded sRNA nucleic acids into mouse intestinal tissue” value is “can effectively orally deliver”, the “oral delivery of single-stranded sRNA nucleic acids into mouse kidney tissue” value is given as “can effectively orally deliver”, the “oral delivery of single-stranded sRNA nucleic acids into mouse liver tissue” value is on record as “can effectively orally deliver” and the “oral delivery of single-stranded sRNA nucleic acids into mouse lung tissue” value is reported as “can effectively orally deliver”. In addition, under setting [1], the “oral delivery of single-stranded sRNA nucleic acids into mouse spleen tissue” value is given as “can effectively orally deliver” and the “oral delivery of single-stranded sRNA nucleic acids into mouse stomach tissue” value is on record as “can effectively orally deliver”. In addition, the “oral delivery of single-stranded sRNA nucleic acids into mouse brain tissue” value under setting [2] is “can effectively orally deliver”.

Take `CC(=O)[C@@]1(O)CC[C@H]2[C@@H]3C[C@H](C)C4=CC(=O)CC[C@]4(C)[C@H]3CC[C@@]21C` [Lipid 557]: under setting [1], the “delivery efficacy over each tissue and blood tested (broad-spectrum delivery)” value is recorded as “exhibited the best delivery efficacy”; the “oral delivery of single-stranded sRNA nucleic acids into mouse blood” value was “can effectively orally deliver”; the “oral delivery of single-stranded sRNA nucleic acids into mouse femur” value is listed as “can effectively orally deliver”; the “oral delivery of single-stranded sRNA nucleic acids into mouse heart tissue” value is recorded as “can effectively orally deliver”. Under setting [1], the “oral delivery of single-stranded sRNA nucleic acids into mouse intestinal tissue” value is “can effectively orally deliver”, the “oral delivery of single-stranded sRNA nucleic acids into mouse kidney tissue” value was “can effectively orally deliver”, the “oral delivery of single-stranded sRNA nucleic acids into mouse liver tissue” value is recorded as “can effectively orally deliver” and the “oral delivery of single-stranded sRNA nucleic acids into mouse lung tissue” value is listed as “can effectively orally deliver”. Further, under setting [1], the “oral delivery of single-stranded sRNA nucleic acids into mouse spleen tissue” value is recorded as “can effectively orally deliver” and the “oral delivery of single-stranded sRNA nucleic acids into mouse stomach tissue” value is “can effectively orally deliver”. In addition, the “oral delivery of single-stranded sRNA nucleic acids into mouse brain tissue” value (mouse, in vivo, po) is reported as “can effectively orally deliver”.

Consider `C[C@@H]1CC[C@@]2(OC1)O[C@H]1C[C@H]3[C@@H]4CC[C@H]5C[C@@H](O)CC[C@]5(C)[C@H]4CC(=O)[C@]3(C)[C@H]1[C@@H]2C` [Lipid 558], for which, under setting [1], the “delivery efficacy over each tissue and blood tested (broad-spectrum delivery)” value was “exhibited the best delivery efficacy”; the “oral delivery of single-stranded sRNA nucleic acids into mouse blood” value is “can effectively orally deliver”; the “oral delivery of single-stranded sRNA nucleic acids into mouse femur” value is “can effectively orally deliver”; the “oral delivery of single-stranded sRNA nucleic acids into mouse heart tissue” value was “can effectively orally deliver”. In addition, under setting [1], the “oral delivery of single-stranded sRNA nucleic acids into mouse intestinal tissue” value was “can effectively orally deliver”, the “oral delivery of single-stranded sRNA nucleic acids into mouse kidney tissue” value is listed as “can effectively orally deliver”, the “oral delivery of single-stranded sRNA nucleic acids into mouse liver tissue” value is “can effectively orally deliver” and the “oral delivery of single-stranded sRNA nucleic acids into mouse lung tissue” value is reported as “can effectively orally deliver”. Besides, under setting [1], the “oral delivery of single-stranded sRNA nucleic acids into mouse spleen tissue” value was “can effectively orally deliver” and the “oral delivery of single-stranded sRNA nucleic acids into mouse stomach tissue” value is listed as “can effectively orally deliver”. The “oral delivery of single-stranded sRNA nucleic acids into mouse brain tissue” value under setting [2] was “can effectively orally deliver”.

On to `C[C@]12CC[C@H](O)C[C@H]1CC[C@@H]1[C@@H]2CC[C@]2(C)[C@@H](C3=CC(=O)OC3)CC[C@]12O` [Lipid 559], for which, under setting [1], the “delivery efficacy over each tissue and blood tested (broad-spectrum delivery)” value is reported as “exhibited the best delivery efficacy”; the “oral delivery of single-stranded sRNA nucleic acids into mouse blood” value is “can effectively orally deliver”; the “oral delivery of single-stranded sRNA nucleic acids into mouse femur” value is on record as “can effectively orally deliver”; the “oral delivery of single-stranded sRNA nucleic acids into mouse heart tissue” value was “can effectively orally deliver”. In addition, under setting [1], the “oral delivery of single-stranded sRNA nucleic acids into mouse intestinal tissue” value is “can effectively orally deliver”, the “oral delivery of single-stranded sRNA nucleic acids into mouse kidney tissue” value is on record as “can effectively orally deliver”, the “oral delivery of single-stranded sRNA nucleic acids into mouse liver tissue” value is recorded as “can effectively orally deliver” and the “oral delivery of single-stranded sRNA nucleic acids into mouse lung tissue” value was “can effectively orally deliver”. Further, under setting [1], the “oral delivery of single-stranded sRNA nucleic acids into mouse spleen tissue” value was “can effectively orally deliver” and the “oral delivery of single-stranded sRNA nucleic acids into mouse stomach tissue” value is on record as “can effectively orally deliver”. The “oral delivery of single-stranded sRNA nucleic acids into mouse brain tissue” value under setting [2] was “can effectively orally deliver”.

`C#C[C@]1(O)CC[C@H]2[C@@H]3CCC4=CC(=O)CC[C@@H]4[C@H]3CC[C@@]21CC` [Lipid 560]: under setting [1], the “delivery efficacy over each tissue and blood tested (broad-spectrum delivery)” value is “exhibited the best delivery efficacy”; the “oral delivery of single-stranded sRNA nucleic acids into mouse blood” value is reported as “can effectively orally deliver”; the “oral delivery of single-stranded sRNA nucleic acids into mouse femur” value is on record as “can effectively orally deliver”; the “oral delivery of single-stranded sRNA nucleic acids into mouse heart tissue” value was “can effectively orally deliver”. Further, under setting [1], the “oral delivery of single-stranded sRNA nucleic acids into mouse intestinal tissue” value was “can effectively orally deliver”, the “oral delivery of single-stranded sRNA nucleic acids into mouse kidney tissue” value is given as “can effectively orally deliver”, the “oral delivery of single-stranded sRNA nucleic acids into mouse liver tissue” value is recorded as “can effectively orally deliver” and the “oral delivery of single-stranded sRNA nucleic acids into mouse lung tissue” value is on record as “can effectively orally deliver”. Besides, under setting [1], the “oral delivery of single-stranded sRNA nucleic acids into mouse spleen tissue” value is recorded as “can effectively orally deliver” and the “oral delivery of single-stranded sRNA nucleic acids into mouse stomach tissue” value is given as “can effectively orally deliver”. In addition, the “oral delivery of single-stranded sRNA nucleic acids into mouse brain tissue” value under setting [2] was “can effectively orally deliver”.
